Converted amounts (≈) assume the structure as drawn. Peptide text beside a SMILES is read from it.
system: A. baumannii; assay type: cell-based; details: not given
From the text: Broth dilution methods are e.g., described by Lorian (2007) In: Antibiotics in Laboratory Medicine, Fifth Edition; and In: Clinical and Laboratory Standards Institute, CLSI (formerly NCCLS), In: Methods for Dilution Antimicrobial Susceptibility Tests for Bacteria that Grow Aerobically—Approved Standard—Seventh Edition, CLSI document M7-A7, Villanova, Pa. (NCCLS; January 2006; Vol. 26 No. 2); and In: Clinical and Laboratory Standards Institute, CLSI (formerly NCCLS), Performance Standards for Antimicrobial Susceptibility Testing, Seventeenth Informational Supplement, M100-S17, Vol 27 No. 1 January 2007, all of which are incorporated herein by reference.
The present inventors used such methods to quantitate activity in vitro of antimicrobial peptides of the invention against bacterial isolates, including laboratory strains and 50 clinical isolates of A. baumannii, and S. aureus ATCC Accession No. 2992. Briefly, small volumes of broth are dispensed in sterile, plastic microtiter trays, and 100 μl of serially-diluted antimicrobial peptide (0.1-64 μg) and 100 μl test organism (approximately 1×10^5 C.F.U.), are added. Following aerobic incubation overnight at 35±2° C. Control samples lacked peptide (Growth control), or lacked peptide and bacteria (Sterility control). The trays were examined visually and the minimal inhibitory concentration (MIC) of peptide required to inhibit bacterial growth were determined. The minimum bactericidal concentration (MBC) was estimated by sub-culturing the wells for which no bacterial growth was visible to the naked eye, to thereby determine a concentration of antimicrobial that reduces the original inoculum by at least about 99.9%.

| SMILES | MIC | bactericidal or bacteriostatic against A. baumannii | MBC | MIC (μM) for non-amidated Peptide |
| --- | --- | --- | --- | --- |
| CC[C@H](C)[C@H](NC(=O)[C@H](CCC(N)=O)NC(=O)[C@H](CCCNC(=N)N)NC(=O)[C@@H](NC(=O)[C@@H](NC(=O)[C@@H]1CCCN1)C(C)C)C(C)C)C(=O)N[C@@H](CC(C)C)C(=O)N[C@@H](CCCNC(=N)N)C(=O)N[C@@H](CO)C(=O)N[C@@H](CCC(=O)O)C(=O)N[C@@H](Cc1c[nH]c2ccccc12)C(=O)N[C@@H](CCCNC(=N)N)C(=O)N[C@@H](CC(N)=O)C(=O)N[C@@H](Cc1c[nH]c2ccccc12)C(=O)N[C@@H](CCCNC(=N)N)C(=O)N[C@@H](CCCCN)C(=O)N[C@@H](CO)C(=O)N[C@@H](CC(C)C)C(=O)N[C@@H](CCC(=O)O)C(=O)N[C@@H](CCSC)C(=O)N[C@@H](CCCNC(=N)N)C(=O)NCC(=O)N[C@@H](CCCNC(=N)N)C(=O)O [Ac437] (H-PVVRQILRSEWRNWRKSLEMRGR-OH; N-terminus and C-terminus assumed) | 40 µM (≈ 118 µg/mL) |  |  |  |
| CC[C@H](C)[C@H](NC(=O)[C@H](CCCNC(=N)N)NC(=O)[C@@H]1CCCN1C(=O)CNC(=O)[C@H](C)NC(=O)[C@H](CCSC)NC(=O)[C@H](CCCNC(=N)N)NC(=O)[C@H](CC(C)C)NC(=O)[C@H](CCCNC(=N)N)NC(=O)[C@H](CS)NC(=O)[C@H](CS)NC(=O)[C@H](C)NC(=O)[C@H](Cc1c[nH]c2ccccc12)NC(=O)CNC(=O)[C@H](CS)NC(=O)CNC(=O)[C@H](C)NC(=O)[C@H](C)NC(=O)[C@@H]1CCCN1C(=O)[C@H](Cc1ccccc1)NC(=O)[C@H](Cc1c[nH]c2ccccc12)NC(=O)CN)C(=O)NCC(=O)O [Ac451] (H-GWFPAAGCGWACCRLRMAGPRIG-OH; N-terminus and C-terminus assumed) | 40 µM (≈ 97.5 µg/mL) |  |  |  |
| CC[C@H](C)[C@H](NC(=O)[C@H](C)NC(=O)[C@H](Cc1c[nH]c2ccccc12)NC(=O)[C@H](CCCNC(=N)N)NC(=O)[C@H](CC(C)C)NC(=O)[C@H](CO)NC(=O)CNC(=O)[C@H](C)NC(=O)[C@H](CCCNC(=N)N)NC(=O)[C@H](Cc1c[nH]cn1)NC(=O)[C@H](CC(=O)O)NC(=O)[C@@H](NC(=O)[C@@H]1CCCN1C(=O)[C@H](CCCNC(=N)N)NC(=O)[C@@H]1CCCN1C(=O)[C@@H](N)CCCNC(=N)N)C(C)C)C(=O)N[C@@H](C)C(=O)N[C@@H](Cc1ccccc1)C(=O)N[C@@H](CCC(N)=O)C(=O)N[C@H](C(=O)N[C@@H](CO)C(=O)N[C@@H](CO)C(=O)N[C@@H](CC(C)C)C(=O)O)C(C)C [Ac469] (H-RPRPVDHRAGSLRWAIAFQVSSL-OH; N-terminus and C-terminus assumed) | 50 µM (≈ 131 µg/mL) | bacteriostatic |  |  |
| CSCC[C@H](N)C(=O)NCC(=O)N[C@@H](CCCNC(=N)N)C(=O)N[C@@H](CC(C)C)C(=O)N[C@@H](CO)C(=O)NCC(=O)N[C@H](C(=O)N[C@@H](C)C(=O)N[C@@H](Cc1c[nH]c2ccccc12)C(=O)N[C@@H](CCCNC(=N)N)C(=O)N[C@@H](CCCNC(=N)N)C(=O)N[C@@H](CC(C)C)C(=O)N[C@@H](CO)C(=O)N[C@@H](CC(C)C)C(=O)N[C@@H](CCCNC(=N)N)C(=O)N[C@@H](Cc1c[nH]cn1)C(=O)N[C@@H](CS)C(=O)N[C@@H](CCC(=O)O)C(=O)N[C@@H](CS)C(=O)NCC(=O)N[C@@H](CCCNC(=N)N)C(=O)N[C@@H](CCCNC(=N)N)C(=O)N1CCC[C@H]1C(=O)O)C(C)C [Ac370] (H-MGRLSGVAWRRLSLRHCECGRRP-OH; N-terminus and C-terminus assumed) | 20 µM (≈ 53.9 µg/mL) |  | 20 µM (≈ 53.9 µg/mL) | 20 µM |
| CC[C@H](C)[C@H](NC(=O)[C@H](CO)NC(=O)[C@H](Cc1c[nH]c2ccccc12)NC(=O)[C@H](CS)NC(=O)[C@H](CCCNC(=N)N)NC(=O)[C@H](CS)NC(=O)[C@@H](NC(=O)[C@@H](NC(=O)[C@@H]1CCCN1C(=O)[C@H](CCCNC(=N)N)NC(=O)[C@H](C)NC(=O)[C@H](C)NC(=O)[C@H](CS)NC(=O)[C@H](CCCNC(=N)N)NC(=O)[C@H](CCCCN)NC(=O)[C@H](CCCNC(=N)N)NC(=O)[C@@H](N)[C@@H](C)O)[C@@H](C)O)[C@@H](C)O)C(=O)NCC(=O)N[C@@H](CCCNC(=N)N)C(=O)N[C@@H](C)C(=O)N[C@@H](Cc1c[nH]c2ccccc12)C(=O)N[C@@H](CCCCN)C(=O)N[C@@H](C)C(=O)O [Ac364] (H-TRKRCAARPTTCRCWSIGRAWKA-OH; N-terminus and C-terminus assumed) | 40 µM (≈ 107 µg/mL) |  | 40 µM (≈ 107 µg/mL) |  |
| CC[C@H](C)[C@H](NC(=O)[C@@H]1CCCN1C(=O)[C@@H](NC(=O)[C@@H](NC(=O)[C@H](C)NC(=O)[C@H](CCCNC(=N)N)NC(=O)[C@H](CC(C)C)NC(=O)[C@@H](NC(=O)[C@H](C)NC(=O)[C@H](CCCNC(=N)N)NC(=O)[C@H](CC(C)C)NC(=O)[C@H](CCSC)NC(=O)[C@H](C)NC(=O)[C@@H](NC(=O)[C@@H]1CCCN1C(=O)[C@H](CC(C)C)NC(=O)[C@@H](N)C(C)C)C(C)C)[C@@H](C)O)[C@@H](C)O)C(C)C)C(=O)N[C@@H](CO)C(=O)N[C@@H](CCCNC(=N)N)C(=O)N[C@@H](CO)C(=O)N[C@@H](CCCNC(=N)N)C(=O)N[C@@H](CC(C)C)C(=O)N[C@@H](CCCNC(=N)N)C(=O)O [Ac434] (H-VLPVAMLRATLRATVPISRSRLR-OH; N-terminus and C-terminus assumed) | 40 µM (≈ 103 µg/mL) |  | 40 µM (≈ 103 µg/mL) |  |
| CC(C)C[C@H](NC(=O)CNC(=O)[C@H](CS)NC(=O)[C@H](CO)NC(=O)CNC(=O)[C@H](CCCNC(=N)N)NC(=O)[C@H](CS)NC(=O)[C@H](CCCCN)NC(=O)[C@H](CO)NC(=O)[C@H](CC(C)C)NC(=O)[C@@H](NC(=O)[C@H](CC(N)=O)NC(=O)[C@H](CS)NC(=O)[C@H](C)NC(=O)[C@H](CCCNC(=N)N)NC(=O)[C@H](Cc1c[nH]c2ccccc12)NC(=O)[C@H](CCCNC(=N)N)NC(=O)[C@H](Cc1c[nH]c2ccccc12)NC(=O)CNC(=O)[C@H](C)NC(=O)CN)[C@@H](C)O)C(=O)N[C@@H](CCCNC(=N)N)C(=O)N[C@H](C(=O)O)C(C)C [Ac379] (H-GAGWRWRACNTLSKCRGSCGLRV-OH; N-terminus and C-terminus assumed) | 30 µM (≈ 76.1 µg/mL) |  | 39 µM (≈ 99 µg/mL) |  |
| CC(C)C[C@H](NC(=O)[C@H](Cc1ccccc1)NC(=O)[C@H](CCCNC(=N)N)NC(=O)[C@H](CCCNC(=N)N)NC(=O)[C@H](CCCNC(=N)N)NC(=O)[C@H](CO)NC(=O)[C@H](CS)NC(=O)[C@@H](N)Cc1c[nH]c2ccccc12)C(=O)N[C@@H](C)C(=O)N[C@@H](CCCNC(=N)N)C(=O)N[C@@H](CS)C(=O)N[C@@H](Cc1c[nH]c2ccccc12)C(=O)N[C@@H](CCCNC(=N)N)C(=O)O [Ac496] (H-WCSRRRFLARCWR-OH; N-terminus and C-terminus assumed) | 40 µM (≈ 71.8 µg/mL) |  | 40 µM (≈ 71.8 µg/mL) |  |
| CC[C@H](C)[C@H](NC(=O)[C@H](CCCNC(=N)N)NC(=O)[C@H](CCCNC(=N)N)NC(=O)[C@H](CC(C)C)NC(=O)[C@H](CC(=O)O)NC(=O)[C@H](CCC(=O)O)NC(=O)[C@H](CCCNC(=N)N)NC(=O)[C@H](CC(C)C)NC(=O)[C@H](CCCNC(=N)N)NC(=O)CNC(=O)[C@H](CO)NC(=O)[C@H](Cc1ccccc1)NC(=O)[C@@H](NC(=O)[C@H](CC(C)C)NC(=O)[C@@H](NC(=O)CNC(=O)[C@H](Cc1ccccc1)NC(=O)[C@@H](NC(=O)[C@@H](NC(=O)CNC(=O)CN)C(C)C)C(C)C)C(C)C)[C@@H](C)O)C(=O)N[C@@H](CS)C(=O)N[C@@H](CCCNC(=N)N)C(=O)O [Ac338] (H-GGVVFGVLTFSGRLREDLRRICR-OH; N-terminus and C-terminus assumed) | 30 µM (≈ 78.2 µg/mL) |  | 30 µM (≈ 78.2 µg/mL) |  |
| CC(C)C[C@H](NC(=O)[C@H](CS)NC(=O)[C@@H](NC(=O)[C@@H](NC(=O)[C@H](Cc1ccccc1)NC(=O)[C@H](Cc1c[nH]c2ccccc12)NC(=O)[C@@H](NC(=O)[C@H](CC(C)C)NC(=O)[C@H](Cc1ccccc1)NC(=O)[C@H](CS)NC(=O)[C@@H](NC(=O)[C@H](CC(N)=O)NC(=O)[C@@H](N)Cc1c[nH]cn1)[C@@H](C)O)[C@@H](C)O)[C@@H](C)O)[C@@H](C)O)C(=O)O [Ac472] (H-HNTCFLTWFTTCL-OH; N-terminus and C-terminus assumed) | 15 µM (≈ 23.8 µg/mL) | bacteriostatic |  | 15 µM |
| CC[C@H](C)[C@H](NC(=O)[C@H](CS)NC(=O)[C@H](CS)NC(=O)[C@H](CCCNC(=N)N)NC(=O)[C@H](CC(=O)O)NC(=O)[C@H](CO)NC(=O)[C@H](CC(C)C)NC(=O)[C@H](CCCNC(=N)N)NC(=O)[C@H](CCCNC(=N)N)NC(=O)[C@H](CC(C)C)NC(=O)[C@H](Cc1ccccc1)NC(=O)CNC(=O)[C@H](CO)NC(=O)[C@@H]1CCCN1C(=O)[C@H](Cc1c[nH]c2ccccc12)NC(=O)[C@@H](NC(=O)[C@@H]1CCCN1)C(C)C)C(=O)N[C@@H](Cc1c[nH]cn1)C(=O)N[C@@H](CO)C(=O)N[C@@H](CCCNC(=N)N)C(=O)N[C@@H](CCC(N)=O)C(=O)N[C@@H](C)C(=O)N[C@@H](CCC(N)=O)C(=O)O [Ac329] (H-PVWPSGFLRRLSDRCCIHSRQAQ-OH; N-terminus and C-terminus assumed) | 30 µM (≈ 81.4 µg/mL) |  | 39 µM (≈ 106 µg/mL) |  |

same assay, conditions: A. baumannii (Table 8); reduces original inoculum by at least about 99.9%

| SMILES | MBC (μM) |
| --- | --- |
| CC[C@H](C)[C@H](NC(=O)[C@H](C)NC(=O)[C@H](Cc1c[nH]c2ccccc12)NC(=O)[C@H](CCCNC(=N)N)NC(=O)[C@H](CC(C)C)NC(=O)[C@H](CO)NC(=O)CNC(=O)[C@H](C)NC(=O)[C@H](CCCNC(=N)N)NC(=O)[C@H](Cc1c[nH]cn1)NC(=O)[C@H](CC(=O)O)NC(=O)[C@@H](NC(=O)[C@@H]1CCCN1C(=O)[C@H](CCCNC(=N)N)NC(=O)[C@@H]1CCCN1C(=O)[C@@H](N)CCCNC(=N)N)C(C)C)C(=O)N[C@@H](C)C(=O)N[C@@H](Cc1ccccc1)C(=O)N[C@@H](CCC(N)=O)C(=O)N[C@H](C(=O)N[C@@H](CO)C(=O)N[C@@H](CO)C(=O)N[C@@H](CC(C)C)C(=O)O)C(C)C [Ac469] (H-RPRPVDHRAGSLRWAIAFQVSSL-OH; N-terminus and C-terminus assumed) | bacteriostat |
| CC(C)C[C@H](NC(=O)[C@H](CS)NC(=O)[C@@H](NC(=O)[C@@H](NC(=O)[C@H](Cc1ccccc1)NC(=O)[C@H](Cc1c[nH]c2ccccc12)NC(=O)[C@@H](NC(=O)[C@H](CC(C)C)NC(=O)[C@H](Cc1ccccc1)NC(=O)[C@H](CS)NC(=O)[C@@H](NC(=O)[C@H](CC(N)=O)NC(=O)[C@@H](N)Cc1c[nH]cn1)[C@@H](C)O)[C@@H](C)O)[C@@H](C)O)[C@@H](C)O)C(=O)O [Ac472] (H-HNTCFLTWFTTCL-OH; N-terminus and C-terminus assumed) | bacteriostat |

Reference: patent US20110262508A1, “ANTIMICROBIAL COMPOSITIONS, FORMULATIONS AND USES THEREOF” (priority 2007, published 2011)
